Experimental data published in patent US20040147595A1, “Biofilm degrading or sloughing compositions and methods” (priority 2001, published 2004).

Test system: lasB-gfp(ASV) reporter in P. aeruginosa PAO-JP2 biofilm
Assay: OdDHL-mediated signalling in PAO-JP2 flowcell biofilm, lasB-gfp(ASV) reporter, CSLM
Type: cell-based, Pseudomonas aeruginosa
Procedure: P. aeruginosa biofilms. Biofilms were grown at 30° C. in three-dimensional flow cells (Christensen et al., 1999) with individual channel dimensions of 0.3×4×40 mm supplied With ABt minimal medium supplemented with 2% LB. The flow system was assembled and prepared as described by Christensen et al. (1999). The substratum consisted of a microscope glass coverslip (Knittel 24×50 mm st1, Knittel Glaser, Braunschweig, Germany). Cultures for inoculation of the flow channels were prepared in the following way: P. aeruginosa strains were streaked on LB plates with the appropriate antibiotics and incubated for 24 h at 37° C. From each plate a single colony was used for inoculation of 10 ml ABt with 10% LB. The cultures were grown at, 30° C. for 18 h before they were diluted to an OD600 nm of 0.1 in sterile 0.9% NaCl and used for inoculation of the flow channels. Medium flow was kept at a constant rate of 3 mL/h, equivalent to a mean flow velocity of 0.7 mm/s, using a Watson-Marlow 205S peristaltic pump (Watson-Marlow, Falmouth, England). Biofilms were grown for 24 hours before being shifted to media containing AHL and furanone.
Scanning confocal laser microscopy (SCLM). Microscopic inspection and image acquisition were performed an a scanning confocal laser microscope (model TCS4D, Leica Lasertechnik GmbH, Heldelberg, Germany) equipped with a 63×/1.32-0.6 oil objective. The microscope was equipped with a motorized and programmable xy-stage, which was used for monitoring single colonies during the biofilm experiments. At the beginning of each online experiment, the microscope was programmed to track single randomly selected microcolonies; the sensitivity of photo multipliers and the laser intensity were adjusted and thereafter kept constant through out the duration of the experiments. Image scanning was carried out using the 488 nm and 568 nm lines of an Ar/Kr laser for detection of Gfp and Rfp, respectively. Visualization of captured images was performed using the IMARIS software package (Bitplane AG, Zúrich, Switzerland) running on a Silicon Graphics Indigo 2 workstation (Silicon Graphics, Mountain View, Calif. USA).
Inhibition of AHL-mediated signalling in P. aeruginosa biofilms. The lasB-gfp(ASV) reported was integrated into the chromosome of PAO-JP2 to ensure stable segregation and a constant gene dosage of the reported system. The strain was growth in flowcells for 24 hours in ABt-LB medium and a 10-15 μm thick biofilm developed. The media flow was subsequently switched to ABt-LB medium containing the appropriate AHL and furanone concentrations. The development of green fluorescence was monitored online by CSLM for 8 hours.

`O=C1C=C/C(=C/Br)O1` [furanone 56] was tested, and the “induction of green fluorescence in biofilm” value (“induction” for short) (40 nM OdDHL and 2 μl/ml furanone 56, 8 hours) was “did not lead to induction of green fluorescence”, the “induction” value (80 nM OdDHL and 2 μg/ml furanone 56) was “green fluorescence was induced” and the “induction” value (80 nM OdDHL and 4 μg/ml furanone, data not shown) was “Induction of green fluorescence was established”. The “green fluorescence in biofilm” value (4 μg/ml alone, data not shown) was “No green fluorescence was observed”.
